This note sets out measurements from US5840684A, “Glycopeptide antibiotic derivatives” (Eli Lilly and Company, priority 1995, dated 1998).

Assay [1] relates to vancomycin-resistant enterococci. Description: broth micro-dilution, mean geometric MIC. Type of assay: cell-based, Enterococcus faecium and Enterococcus faecalis. To be noted: enterococci, 24-hour incubation. For orientation: Broth dilution looks for growth in wells or tubes with falling amounts of substance.
In assay [2] the test system is Staphylococcus aureus 491. The assay is described as follows: broth micro-dilution MIC. Type of assay: cell-based. The procedure: (§1) The MIC's were determined using a standard broth micro-dilution assay.
In assay [3] the test system is Staphylococcus aureus X400. Description: broth micro-dilution MIC. The class given is cell-based. The protocol: as §1
Assay [4] concerns Staphylococcus aureus SA1199. Description: broth micro-dilution MIC. Type of assay: cell-based. The protocol:
as §1

A further assay deals with Entercoccus faecium 276. Description: broth micro-dilution MIC. Type of assay: cell-based. The procedure: as §1
For assay [5], the system named is Entercoccus faecium 180-1. Description: broth micro-dilution MIC. The class given is cell-based. The procedure: as §1
Assay [6] concerns Staphylococcus aureus X778. Description: broth micro-dilution MIC. The class given is cell-based. The procedure:
as §1

Assay [7] has as its system Streptococcus pyogenes C203. The assay is described as follows: broth micro-dilution MIC. Type of assay: cell-based. The protocol: as §1
Assay [8] has as its system Staphylococcus aureus 489. Description: broth micro-dilution MIC. The class given is cell-based. The protocol: as §1
Assay [9] deals with Staphylococcus aureus 446. The assay is described as follows: broth micro-dilution MIC. The class given is cell-based. The protocol: as §1
The test system of assay [10] is Staphylococcus aureus SA1199A. Description: broth micro-dilution MIC. Type of assay: cell-based. The protocol:
as §1

Assay [11] concerns Staphylococcus aureus 447. The assay is described as follows: broth micro-dilution MIC. Type of assay: cell-based. The protocol: as §1
In assay [12] the test system is Enterococcus gallinarum 245. Description: broth micro-dilution MIC. To be noted: Enterococcus gallinarum 245. Type of assay: cell-based. The procedure: (§2) The formula I compounds have in vitro and in vivo activity against Gram-positive pathogenic bacteria. The MIC's were determined using a standard broth micro-dilution assay.
The test system of assay [13] is Staphylococcus haemolyticus 415. Description: broth micro-dilution MIC. Type of assay: cell-based. The protocol: as §2
The subject of assay [14] is Staphylococcus epidermidis 270. Description: broth micro-dilution MIC. Type of assay: cell-based. The procedure: as §2
The next assay has as its system Entercoccus faecium 180. Description: broth micro-dilution MIC. The class given is cell-based. The conditions noted are these: Entercoccus faecium 180. The protocol: as §2
The subject of another assay is Entercoccus faecium 2041. The assay is described as follows: broth micro-dilution MIC. Type of assay: cell-based. To be noted: Entercoccus faecium 2041. The protocol:
as §2

Assay [15] deals with Staphylococcus haemolyticus 105. The assay is described as follows: broth micro-dilution MIC. Type of assay: cell-based. The protocol:
as §2

Assay [16] concerns Streptococcus pneumoniae P1. Description: broth micro-dilution MIC. The class given is cell-based. The protocol:
as §2

Assay [17] relates to Staphylococcus aureus S13E. The class given is cell-based. The protocol: as §1
Assay [18] concerns Staphylococcus aureus SA1199B. Type of assay: cell-based. The protocol: as §1
The test system of assay [19] is vancomycin-susceptible enterococci. Description: broth micro-dilution, mean geometric MIC. The class given is cell-based, Enterococcus faecium and Enterococcus faecalis. The conditions noted are these: enterococci, 24-hour incubation.

Values after ≈ are worked out from the molar mass of the structure shown.

The MIC is the smallest concentration in the dilution series that meets the test's criterion for growth inhibition. A high value points to a less susceptible organism. Consider `CNC(CC(C)C)C(=O)NC1C(=O)NC(CC(N)=O)C(=O)NC2C(=O)NC3C(=O)NC(C(=O)NC(C(=O)O)c4cc(O)cc(O)c4-c4cc3ccc4O)C(OC3CC(C)(N)C(O)C(C)O3)c3ccc(c(Cl)c3)Oc3cc2cc(c3OC2OC(CO)C(O)C(O)C2OC2CC(C)(NCc3ccc(OS(=O)(=O)c4c(C)c(C)c(C)c(C)c4C)cc3)C(O)C(C)O2)Oc2ccc(cc2Cl)C1O` (centres unmarked) [Compound 173], for which, in assay [1], the “mean geometric MIC, Vancomycin Resistant Strains” value amounted to 2.0 µg/mL. The MIC in [2] came out at 2 µg/mL (≈ 1.05 µM); in assay [3] it was 4 µg/mL (≈ 2.1 µM); in assay [4], 2 µg/mL (≈ 1.05 µM); against Entercoccus faecium 276, 2 µg/mL (≈ 1.05 µM); in assay [5], 0.5 µg/mL (≈ 0.262 µM); in [6], 4 µg/mL (≈ 2.1 µM). For the same compound, the MIC in assay [7] is at most 0.06 µg/mL; in assay [8], 2 µg/mL (≈ 1.05 µM); in assay [9] it was 4 µg/mL (≈ 2.1 µM); in assay [10], 0.5 µg/mL (≈ 0.262 µM); in [11], 4 µg/mL (≈ 2.1 µM); in assay [12], 4 µg/mL (≈ 2.1 µM). Besides, the MIC was 4 µg/mL (≈ 2.1 µM) in assay [13]; 2 µg/mL (≈ 1.05 µM) in [14]; 0.5 µg/mL (≈ 0.262 µM) in the assay on Entercoccus faecium 180; 0.5 µg/mL (≈ 0.262 µM) in the assay with Entercoccus faecium 2041; 2 µg/mL (≈ 1.05 µM) in assay [15]; at most 0.06 µg/mL in assay [16]. For the same compound, the MIC in assay [17] and in assay [18] was 4 µg/mL (≈ 2.1 µM) each time. The “mean geometric MIC, Vancomycin Sensitive Strains” value in [19] was determined as 0.12 µg/mL.

Turning to `CNC(CC(C)C)C(=O)NC1C(=O)NC(CC(N)=O)C(=O)NC2C(=O)NC3C(=O)NC(C(=O)NC(C(=O)O)c4cc(O)cc(O)c4-c4cc3ccc4O)C(OC3CC(C)(N)C(O)C(C)O3)c3ccc(c(Cl)c3)Oc3cc2cc(c3OC2OC(CO)C(O)C(O)C2OC2CC(C)(NCc3ccc(OC)c(OCC4CCCCC4)c3)C(O)C(C)O2)Oc2ccc(cc2Cl)C1O` (centres unmarked) [Compound 142], the “mean geometric MIC, Vancomycin Resistant Strains” value in [1] was found to be 45 µg/mL. Also, the MIC in [2] is 0.5 µg/mL (≈ 0.274 µM); in assay [3], 1 µg/mL (≈ 0.548 µM); in [4], 1 µg/mL (≈ 0.548 µM); against Entercoccus faecium 276 it was 1 µg/mL (≈ 0.548 µM); in assay [5] it was at most 0.06 µg/mL; in assay [6], 1 µg/mL (≈ 0.548 µM). Further, the MIC in assay [7] was at most 0.06 µg/mL; in [8], 0.5 µg/mL (≈ 0.274 µM); in assay [9] it was 2 µg/mL (≈ 1.1 µM); in assay [10], at most 0.06 µg/mL; in [11], 2 µg/mL (≈ 1.1 µM); in assay [12], 1 µg/mL (≈ 0.548 µM). Further, the MIC in assay [13] was 1 µg/mL (≈ 0.548 µM); in [14] it was 0.25 µg/mL (≈ 0.137 µM); against Entercoccus faecium 180, 0.5 µg/mL (≈ 0.274 µM); in the assay on Entercoccus faecium 2041 it was at most 0.06 µg/mL; in assay [15], 1 µg/mL (≈ 0.548 µM); in [16], at most 0.06 µg/mL. In addition, the MIC in assay [17] and in assay [18] was 2 µg/mL (≈ 1.1 µM) each time. Besides, the “mean geometric MIC, Vancomycin Sensitive Strains” value in assay [19] is 1.5 µg/mL.
